According to patent US20190016689A1, “NOVEL FLUORINATED QUINAZOLINE DERIVATIVES AS EGFR INHIBITORS” (TRILLIUM THERAPEUTICS INC., priority 2016, published 2019):

Test system: not listed separately
Test: Evaluation of P-gp efflux: Caco-2 permeability
Conditions: human, Caco-2, pH 7.4
Method: (§1) At this stage of growth, cell monolayers were fully polarized and differentiated.
(§2) The permeability assay buffer was Hanks Balanced Salt Solution containing 10 mM HEPES and 15 mM glucose at a pH of 7.4. The dosing buffer contained 5 μM metoprolol (positive control), 5 μM atenolol (negative control) and 100 μM lucifer yellow. The buffer in the receiver chamber also contained 1% bovine serum albumin (BSA). The dosing solution concentration was 5 μM in the assay buffer. Digoxin (20 μM) was used as Pgp substrate control.
(§3) The known Pgp inhibitor was co-dosed at 50 μM with compound at 5 μM.
(§4) Cell monolayers were dosed on the apical side (A-to-B) or basolateral side (B-to-A) and incubated at 37° C. in a shaker (65 rpm). Samples were taken from the donor and receiver chambers at 120 minutes. Each determination was performed in duplicate.
(§5) Narrow-window mass extraction LC/MS analysis was performed for all samples from this study using a Waters Xevo quadrupole time-of-flight (QTof) mass spectrometer, to determine relative peak areas of parent compound. The percent of transported drug was calculated based on these peak areas, relative to the initial, dosing concentration.

Question: What does the source list for `CC(C)NCC(O)COc1cccc2ccccc12` (stereo not drawn) [Propranolol]?
Answer: Papp A→B at 120 min, 5 µM: 21.1 ×10⁻⁶ cm/s; Papp B→A at 120 min, 5 µM: 15.8 ×10⁻⁶ cm/s

Question: For `C[C@H]1O[C@@H](O[C@H]2[C@@H](O)C[C@H](O[C@H]3[C@@H](O)C[C@H](O[C@H]4CC[C@@]5(C)[C@H](CC[C@@H]6[C@@H]5C[C@@H](O)[C@]5(C)[C@@H](C7=CC(=O)OC7)CC[C@]65O)C4)O[C@@H]3C)O[C@@H]2C)C[C@H](O)[C@@H]1O` [Digoxin], which Papp A→B at 120 min, 5 µM is on record?
Answer: 0.75 ×10⁻⁶ cm/s

Question: And the Papp B→A at 120 min, 5 µM?
Answer: 22.7 ×10⁻⁶ cm/s

Question: With `COc1cc2nc(N3CCN(C(=O)c4ccco4)CC3)nc(N)c2cc1OC` [Prazosin] as the compound, how does the Papp A→B at 120 min, 5 µM read?
Answer: 21.7 ×10⁻⁶ cm/s

Question: And the Papp B→A at 120 min, 5 µM?
Answer: 34.7 ×10⁻⁶ cm/s

Test system: P-gp
Test: Evaluation of P-gp efflux: Caco-2 permeability
Conditions: human, Caco-2, pH 7.4
Method: as §1, §2, §3, §4, §5

Question: Which efflux ratio at 120 min, 5 µM does the source give for `CC(C)NCC(O)COc1cccc2ccccc12` (stereo not drawn) [Propranolol] here?
Answer: 0.75

Question: Which efflux ratio at 120 min, 5 µM does the source give for `C[C@H]1O[C@@H](O[C@H]2[C@@H](O)C[C@H](O[C@H]3[C@@H](O)C[C@H](O[C@H]4CC[C@@]5(C)[C@H](CC[C@@H]6[C@@H]5C[C@@H](O)[C@]5(C)[C@@H](C7=CC(=O)OC7)CC[C@]65O)C4)O[C@@H]3C)O[C@@H]2C)C[C@H](O)[C@@H]1O` [Digoxin] here?
Answer: 30.4

Question: For `COc1cc2nc(N3CCN(C(=O)c4ccco4)CC3)nc(N)c2cc1OC` [Prazosin], which efflux ratio at 120 min, 5 µM is on record?
Answer: 1.59

Molecular target: EGFR (T790M) (Homo sapiens, UniProt P00533, T790M, form not given)
Test: Kinase HotSpot profiling (33P-ATP filter binding)
Format: biochemical
Conditions: not given
Method: Base Reaction buffer; 20 mM Hepes (pH 7.5), 10 mM MgCl2, 1 mM EGTA, 0.02% Brij35, 0.02 mg/ml BSA, 0.1 mM Na3VO4, 2 mM DTT, 1% DMSO • Required cofactors are added individually to each kinase reaction
1. The indicated substrate was prepared in fresh Base Reaction Buffer.
2. Any required cofactors were added to the substrate solution above.
3. Indicated kinase was added into the substrate solution and gently mixed.
4. Compounds in DMSO were added into the kinase reaction mixture by Acoustic technology (Echo550; nanoliter range) and incubated for 20 minutes at room temperature.
5. 33P-ATP (specific activity 10 μCi/μl) was added into the reaction mixture to initiate the reaction.
6. The kinase reaction was incubated for 2 hours at room temperature
7. Reactions were spotted onto P81 ion exchange paper.
8. Kinase activity was detected by filter-binding method.
IC50 (nM) concentrations are illustrated in Table 5. This assay confirms that compounds of the application are effective inhibitors of the target EGFR receptors.

Chain of EGFR (T790M) (P00533 whole entry T790M, form open): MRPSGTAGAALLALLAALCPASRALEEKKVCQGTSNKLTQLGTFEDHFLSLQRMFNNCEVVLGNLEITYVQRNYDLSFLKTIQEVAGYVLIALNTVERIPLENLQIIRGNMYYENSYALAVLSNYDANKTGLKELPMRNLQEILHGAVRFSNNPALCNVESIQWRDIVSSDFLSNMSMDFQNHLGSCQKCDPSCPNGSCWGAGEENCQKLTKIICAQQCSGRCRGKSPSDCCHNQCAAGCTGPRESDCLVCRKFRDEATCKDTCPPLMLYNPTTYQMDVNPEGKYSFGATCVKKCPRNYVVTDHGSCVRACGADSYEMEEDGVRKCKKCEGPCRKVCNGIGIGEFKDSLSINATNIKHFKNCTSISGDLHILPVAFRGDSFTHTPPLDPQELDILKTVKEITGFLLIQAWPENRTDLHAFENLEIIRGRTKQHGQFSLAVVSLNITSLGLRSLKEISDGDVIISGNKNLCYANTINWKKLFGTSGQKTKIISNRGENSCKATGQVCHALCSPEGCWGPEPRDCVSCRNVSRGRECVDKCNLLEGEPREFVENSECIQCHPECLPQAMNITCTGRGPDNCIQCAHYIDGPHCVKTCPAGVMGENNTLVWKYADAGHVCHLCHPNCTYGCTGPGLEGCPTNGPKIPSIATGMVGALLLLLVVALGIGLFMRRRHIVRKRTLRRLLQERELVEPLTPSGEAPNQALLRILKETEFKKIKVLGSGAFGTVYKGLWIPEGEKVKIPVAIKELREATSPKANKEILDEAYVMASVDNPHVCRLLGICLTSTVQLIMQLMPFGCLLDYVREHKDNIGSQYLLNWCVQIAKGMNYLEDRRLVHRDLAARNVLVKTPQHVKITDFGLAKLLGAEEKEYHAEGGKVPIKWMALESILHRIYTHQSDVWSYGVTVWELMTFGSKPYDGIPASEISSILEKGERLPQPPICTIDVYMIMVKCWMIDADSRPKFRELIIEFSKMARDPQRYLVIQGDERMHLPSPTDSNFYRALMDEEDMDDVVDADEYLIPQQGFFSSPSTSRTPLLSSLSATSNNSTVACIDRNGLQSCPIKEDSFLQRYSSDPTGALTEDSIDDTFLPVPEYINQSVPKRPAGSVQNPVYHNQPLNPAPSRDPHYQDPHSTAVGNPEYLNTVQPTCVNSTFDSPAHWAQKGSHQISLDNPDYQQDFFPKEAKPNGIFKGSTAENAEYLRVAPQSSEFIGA

Question: Which IC50 does the source give for `COc1cc2ncnc(Nc3ccc(Cl)c(Cl)c3F)c2cc1NC(=O)/C=C/CN1CCC(OC(F)F)CC1` [Example I-17, (E)-N-[4-(3,4-dichloro-2-fluoro-anilino)-7-methoxy-quinazolin-6-yl]-4-[4-(difluoromethoxy)-1-piperidyl]but-2-enamide] here?
Answer: 817 nM

Question: Which IC50 does the source give for `O=C(/C=C/CN1CCC(OC(F)F)CC1)Nc1cc2c(Nc3cccc(Cl)c3F)ncnc2cc1OCCOC(F)F` [Example I-8, (E)-N-[4-(3-chloro-2-fluoro-anilino)-7-[2-(difluoromethoxy)-ethoxy]quinazolin-6-yl]-4-[4-(difluoromethoxy)-1-piperidyl]but-2-enamide] here?
Answer: 79.5 nM

Question: Which IC50 does the source give for `O=C(/C=C/CN1CCC(OC(F)F)CC1)Nc1cc2c(Nc3ccc(F)c(Cl)c3)ncnc2cc1OCCOC(F)F` [Example I-22, (E)-N-[4-(3-chloro-4-fluoro-anilino)-7-[2-(difluoromethoxy)ethoxy]quinazolin-6-yl]-4-[4-(difluoromethoxy)-1-piperidyl]but-2-enamide] here?
Answer: 13.1 nM

Question: For `CN(C)C/C=C/C(=O)Nc1cc2c(Nc3cccc(Cl)c3F)ncnc2cc1OCCOC(F)F` [Example I-5, (E)-N-[4-(3-chloro-2-fluoro-anilino)-7-[2-(difluoromethoxy)ethoxy]quinazolin-6-yl]-4-(dimethylamino)but-2-enamide], which IC50 is on record?
Answer: 0.707 nM

Question: Which IC50 does the source give for `CN(C)C/C=C/C(=O)Nc1cc2c(Nc3ccc(F)c(Cl)c3F)ncnc2cc1OCCOC(F)F` [Example I-9, (E)-N-[4-(3-chloro-2,4-difluoro-anilino)-7-[2-(difluoromethoxy)-ethoxy]quinazolin-6-yl]-4-(dimethylamino)but-2-enamide] here?
Answer: 0.0597 nM

Question: Which IC50 does the source give for `O=C(/C=C/CN1CC(F)(F)C1)Nc1cc2c(Nc3ccc(F)c(Cl)c3F)ncnc2cc1OCCOC(F)F` [Example I-16, (E)-N-[4-(3-chloro-2,4-difluoro-anilino)-7-[2-(difluoromethoxy)ethoxy]quinazolin-6-yl]-4-(3,3-difluoroazetidin-1-yl)but-2-enamide] here?
Answer: 13.7 nM

Question: With `COc1cc2ncnc(Nc3ccc(F)c(Cl)c3)c2cc1NC(=O)/C=C/CN1CCC(OC(F)F)CC1` [Example I-18, (E)-N-[4-(3-chloro-4-fluoro-anilino)-7-methoxy-quinazolin-6-yl]-4-[4-(difluoromethoxy)-1-piperidyl]but-2-enamide] as the compound, how does the IC50 read?
Answer: 62.8 nM

Question: For `C#Cc1cccc(Nc2ncnc3cc(OCCOC(F)F)c(NC(=O)/C=C/CN(C)C)cc23)c1F` [Example I-25, (E)-N-[7-[2-(difluoromethoxy)ethoxy]-4-(3-ethynyl-2-fluoro-anilino)quinazolin-6-yl]-4-(dimethylamino)but-2-enamide], which IC50 is on record?
Answer: 0.679 nM

Question: For `O=C(/C=C/CN1CCOCC1)Nc1cc2c(Nc3ccc(Cl)c(Cl)c3F)ncnc2cc1OCCOC(F)F` [Example I-3, (E)-N-[4-(3,4-dichloro-2-fluoro-anilino)-7-[2-(difluoromethoxy)ethoxy]quinazolin-6-yl]-4-morpholino-but-2-enamide], which IC50 is on record?
Answer: 5.56 nM

Question: For `CN(C)C/C=C/C(=O)Nc1cc2c(Nc3ccc(Cl)c(Cl)c3F)ncnc2cc1OCCOC(F)F` [Example I-2, (E)-N-[4-(3,4-dichloro-2-fluoro-anilino)-7-[2-(difluoromethoxy)ethoxy]quinazolin-6-yl]-4-(dimethylamino)but-2-enamide], which IC50 is on record?
Answer: 16.4 nM

Question: With `O=C(/C=C/CN1CCCCC1)Nc1cc2c(Nc3ccc(F)c(Cl)c3F)ncnc2cc1OCCOC(F)F` [Example I-10, (E)-N-[4-(3-chloro-2,4-difluoro-anilino)-7-[2-(difluoromethoxy)ethoxy]quinazolin-6-yl]-4-(1-piperidyl)but-2-enamide] as the compound, how does the IC50 read?
Answer: 0.156 nM

Question: Which IC50 does the source give for `O=C(/C=C/CN1CCOCC1)Nc1cc2c(Nc3cccc(Cl)c3F)ncnc2cc1OCCOC(F)F` [Example I-7, (E)-N-[4-(3-chloro-2-fluoro-anilino)-7-[2-(difluoromethoxy)-ethoxy]quinazolin-6-yl]-4-morpholino-but-2-enamide] here?
Answer: 10.5 nM
